We go through twelve compounds from patent US20250179088A9 (ZYMEWORKS BC INC., priority 2020, published 2025).

Assay [1] has as its target T1, TLR7 (Homo sapiens, UniProt Q9NYK1).
T1 sequence (Q9NYK1 27-1049): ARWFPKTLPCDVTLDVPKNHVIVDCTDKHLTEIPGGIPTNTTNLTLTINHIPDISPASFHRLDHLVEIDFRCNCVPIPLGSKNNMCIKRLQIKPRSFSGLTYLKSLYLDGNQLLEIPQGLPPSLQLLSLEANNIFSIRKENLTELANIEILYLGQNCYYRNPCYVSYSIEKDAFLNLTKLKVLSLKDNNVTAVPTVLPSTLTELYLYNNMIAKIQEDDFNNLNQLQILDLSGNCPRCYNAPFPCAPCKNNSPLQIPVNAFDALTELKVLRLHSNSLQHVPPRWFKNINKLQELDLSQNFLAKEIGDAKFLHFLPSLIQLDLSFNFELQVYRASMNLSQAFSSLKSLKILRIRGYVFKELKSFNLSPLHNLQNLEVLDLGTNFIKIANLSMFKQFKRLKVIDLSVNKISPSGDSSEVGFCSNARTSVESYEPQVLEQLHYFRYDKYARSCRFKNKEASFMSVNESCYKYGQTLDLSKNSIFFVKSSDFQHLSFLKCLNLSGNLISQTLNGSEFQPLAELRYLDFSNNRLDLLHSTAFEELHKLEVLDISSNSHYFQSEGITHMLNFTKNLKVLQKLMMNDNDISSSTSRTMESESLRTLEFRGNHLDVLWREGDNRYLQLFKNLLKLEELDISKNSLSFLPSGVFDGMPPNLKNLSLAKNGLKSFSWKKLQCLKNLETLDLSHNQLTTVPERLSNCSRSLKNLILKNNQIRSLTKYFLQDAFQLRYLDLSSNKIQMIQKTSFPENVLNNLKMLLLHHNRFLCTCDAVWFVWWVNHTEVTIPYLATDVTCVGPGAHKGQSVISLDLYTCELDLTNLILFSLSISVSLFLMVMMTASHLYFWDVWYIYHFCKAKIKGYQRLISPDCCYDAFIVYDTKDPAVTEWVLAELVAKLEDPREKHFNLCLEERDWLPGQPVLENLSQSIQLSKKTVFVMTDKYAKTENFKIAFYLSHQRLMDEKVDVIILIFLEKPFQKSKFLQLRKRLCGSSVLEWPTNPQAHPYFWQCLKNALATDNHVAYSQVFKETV
In words: Reporter gene assay, HEK-Blue TLR7 reporter cells (SEAP). Background: Reporter assays use an easily measured gene product as a stand-in for the process of interest.
Procedure: (§1) 3×10^4 HEK-Blue™ TLR7 or 3×10^4 TLR8 reporter cells (InvivoGen, San Diego, CA) were treated with titrated (4-fold) amounts of test compound. […] Cells were incubated overnight at 37° C. and 5% CO2, then absorbance (620 and 655 nm) was read on a Synergy™ H1 microplate reader.

Assay [2] addresses T2, TLR8 (Homo sapiens, UniProt Q9NR97).
T2 sequence (Q9NR97 27-1041): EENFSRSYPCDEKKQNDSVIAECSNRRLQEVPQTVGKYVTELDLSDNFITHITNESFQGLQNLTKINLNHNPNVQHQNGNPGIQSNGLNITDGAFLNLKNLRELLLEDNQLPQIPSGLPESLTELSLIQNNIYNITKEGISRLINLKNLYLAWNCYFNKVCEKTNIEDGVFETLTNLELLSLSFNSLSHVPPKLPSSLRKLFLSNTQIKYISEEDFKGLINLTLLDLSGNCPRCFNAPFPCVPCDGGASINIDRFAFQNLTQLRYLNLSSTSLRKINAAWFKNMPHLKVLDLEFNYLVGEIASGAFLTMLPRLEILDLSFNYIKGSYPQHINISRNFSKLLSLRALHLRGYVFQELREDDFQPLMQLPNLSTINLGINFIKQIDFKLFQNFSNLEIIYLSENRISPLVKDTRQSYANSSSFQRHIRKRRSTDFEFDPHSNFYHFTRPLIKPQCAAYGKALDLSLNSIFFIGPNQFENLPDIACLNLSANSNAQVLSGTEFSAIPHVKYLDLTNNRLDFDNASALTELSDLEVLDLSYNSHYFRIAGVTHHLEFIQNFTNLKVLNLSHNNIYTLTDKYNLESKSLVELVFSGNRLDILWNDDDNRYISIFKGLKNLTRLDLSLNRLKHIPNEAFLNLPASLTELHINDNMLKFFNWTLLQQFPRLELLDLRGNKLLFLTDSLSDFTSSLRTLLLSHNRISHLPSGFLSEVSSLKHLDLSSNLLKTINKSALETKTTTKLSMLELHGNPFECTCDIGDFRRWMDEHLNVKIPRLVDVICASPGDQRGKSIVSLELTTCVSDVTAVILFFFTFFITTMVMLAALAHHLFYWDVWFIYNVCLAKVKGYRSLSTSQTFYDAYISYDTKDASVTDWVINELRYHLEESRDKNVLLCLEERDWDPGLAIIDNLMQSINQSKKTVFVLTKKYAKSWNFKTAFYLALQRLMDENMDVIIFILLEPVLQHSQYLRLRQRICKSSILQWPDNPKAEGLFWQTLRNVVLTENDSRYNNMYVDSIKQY
In words: Reporter gene assay, HEK-Blue TLR8 reporter cells (SEAP).
Procedure: as §1

SMILES strings stand for the structures.

As usually defined, the EC50 is the midpoint of the concentration-response curve. For the compound `CCCCc1nc2c(N)nc3ccsc3c2n1Cc1ccc(CNc2nnc[nH]2)cc1` [Compound 272, 1-(4-(((4H-1,2,4-triazol-3-yl)amino)methyl)benzyl)-2-butyl-1H-imidazo[4,5-d]thieno [3,2-b]pyridin-4-amine], the EC50 in assay [1] is 33 nM; in assay [2], more than 1000 nM.
For `CCCCc1nc2c(N)nc3ccsc3c2n1Cc1ccc(CN2CCN(CCc3ccccn3)CC2)cc1` [Compound 275, 2-butyl-1-(4-((4-(2-(pyridin-2-yl)ethyl)piperazin-1-yl)methyl)benzyl)-1H-imidazo[4,5-d]thieno[3,2-b]pyridin-4-amine] the same measures were more than 1000 nM and more than 1000 nM.
For `CCCCc1nc2c(N)nc3ccsc3c2n1Cc1ccc(CN(CCC)CCC)cc1` [Compound 277, 2-butyl-1-(4-((dipropylamino)methyl)benzyl)-1H-imidazo[4,5-d]thieno[3,2-b]pyridin-4-amine] the same measures were less than 1 nM and 404 nM.
As for `CCCCc1nc2c(N)nc3ccsc3c2n1Cc1ccc(C[n+]2ccccc2)cc1` [Compound 279, 1-(4-((4-amino-2-butyl-1H-imidazo[4,5-d]thieno[3,2-b]pyridin-1-yl)methyl)benzyl) pyridin-1-ium], the EC50 was less than 1 nM in assay [1] and more than 1000 nM in assay [2].
In the case of `CCOCc1nc2c(N)nc3ccsc3c2n1Cc1ccc(CN2CCNCC2)cc1` [Compound 289, 2-(ethoxymethyl)-1-(4-(piperazin-1-ylmethyl)benzyl)-1H-imidazo[4,5-d]thieno[3,2-b]pyridin-4-amine], the EC50 was 9 nM in assay [1] and more than 1000 nM in assay [2].
For `CCOCc1nc2c(N)nc3ccsc3c2n1Cc1ccc(CN(CC)CC)cc1` [Compound 290, 1-(4-((diethylamino)methyl)benzyl)-2-(ethoxymethyl)-1H-imidazo[4,5-d]thieno[3,2-b]pyridin-4-amine] the same measures were 4 nM and 1030 nM.
In the case of `CCOCc1nc2c(N)nc3ccsc3c2n1Cc1ccc(CNC2CC(F)(F)C2)cc1` [Compound 291, 1-(4-(((3,3-difluorocyclobutyl)amino)methyl)benzyl)-2-(ethoxymethyl)-1H-imidazo[4,5-d]thieno[3,2-b]pyridin-4-amine], the figures for the EC50 in assay [1] and in assay [2] were 14 nM and 1130 nM, respectively.
As for `CCOCc1nc2c(N)nc3ccsc3c2n1Cc1ccc(CN[C@H](CO)[C@@H](C)CC)cc1` [Compound 292, (2S,3S)-2-((4-((4-amino-2-(ethoxymethyl)-1H-imidazo[4,5-d]thieno[3,2-b]pyridin-1-yl)methyl)benzyl)amino)-3-methylpentan-1-ol], the EC50 came out at 3 nM in assay [1] and 674 nM in assay [2].
For `CCOCc1nc2c(N)nc3ccsc3c2n1Cc1ccc(CNCc2cc[nH]c2)cc1` [Compound 293, 1-(4-((((1H-pyrrol-3-yl)methyl)amino)methyl)benzyl)-2-(ethoxymethyl)-1H-imidazo [4,5-d]thieno[3,2-b]pyridin-4-amine] the same measures were 7 nM and more than 1000 nM.
Taken in the same sequence, the figures for `CCCCc1nc2c(N)nc3ccsc3c2n1Cc1ccc(C[N+]23CCN(CC2)CC3)cc1` [Compound 295, 1-(4-((4-amino-2-butyl-1H-imidazo[4,5-d]thieno[3,2-b]pyridin-1-yl)methyl)benzyl)-1,4-diazabicyclo[2.2.2]octan-1-ium] were more than 1000 nM and more than 1000 nM.
For `CCCCc1nc2c(N)nc3ccsc3c2n1Cc1ccc(CN[C@H](CO)[C@@H](C)CC)cc1` [Compound 296, (2S,3S)-2-((4-((4-amino-2-butyl-1H-imidazo[4,5-d]thieno[3,2-b]pyridin-1-yl)methyl)benzyl)amino)-3-methylpentan-1-ol] the same measures were less than 1 nM and 134 nM.
As to `CCCCc1nc2c(N)nc3ccsc3c2n1Cc1ccc(CN[C@H](C(=O)O)[C@@H](C)CC)cc1` [Compound 297, (4-((4-amino-2-butyl-1H-imidazo[4,5-d]thieno[3,2-b]pyridin-1-yl)methyl)benzyl)-L-isoleucine], the EC50 is 676 nM in assay [1] and more than 1000 nM in assay [2].
